# Tests used:
# [1] = tested on: Recalcitrant wounds; assay: Further trials of topical formulations F21 to F30, nine patients; assay type: in vivo, human; settings: use of the component in the formulations compared to no use of it
# Experimental: Topical formulations were prepared in aliquots using the following proportions—in F21, F22, and F27 to F30, the specified amounts of CBD and THCa were supplied in 2 ml of total oil volume; in F23 and F24, the specified amount of THCa was supplied in 2 ml of total oil volume and the specified amount of CBD was supplied in 4 ml of total oil volume; in F25 and F26, the specified amount of CBD was supplied in 3 ml of total oil volume:
# Recalcitrant wounds of nine were treated with Formulations F21 to F30. Formulations F21, F23, F25, F27 and F29, compounded in a mixture of hyaluronic acid and aloe vera gel, were applied to wound beds. Formulations F22, F24, F26, F28 and F30, compounded in liposomal base, were applied to periwound areas. […]
# [2] = tested on: integumentary wound; assay: General statements on tests of topical formulations on integumentary wounds; settings: in vivo
SMILES,"more rapid closure of wounds (cm^2/day), average [1]",wound healing effects compared with decarboxylated tetrahydrocannabinol (THC) [2]
C=CC(C)(O)CCC=C(C)C (stereo not drawn) [linalool],3.8 times,
"CCCCCc1cc2c(c(O)c1C(=O)O)[C@@H]1C=C(C)CC[C@H]1C(C)(C)O2 [THCa, tetrahydrocannabinolic acid]",5.3 times,better wound healing effects
